We go through 33 compounds from paper PMC6599804, “N^ɛ-acetyl lysine derivatives with zinc binding groups as novel HDAC inhibitors” (Royal Society Open Science, 2019).

In assay [1] the test system is HDACs (HeLa nuclear extract). Kind of assay: HDAC deacetylation inhibition assay, HeLa nuclear extract with BOC-Ac-Lys-AMC substrate. Format: biochemical, human. To be noted: BOC-Ac-Lys-AMC substrate; for HDAC inhibition (%): compound at 100 µM; for IC50: read-out: IC50 values, HeLa nuclear extract. The method, then: With these N^ɛ-acetyl lysine derivatives in hand (schemes 1–3), we then did the pilot screening for general HDAC inhibitory activity at a compound's concentration of 100 µM. All tested compounds were subjected to the inhibition assay against the HDAC deacetylation reaction by using a HeLa nuclear extract as a source of HDACs and BOC-Ac-Lys-AMC as a substrate.
HDACS inhibition assay in vitro
In vitro HDACs inhibition assays were conducted as previously described. In brief, 4 μL of […]
(1μL), then fluorogenic substrate Boc-Lys(acetyl)-AMC (100 μM) and Buffer A (50 mM Tis-HCl pH=8.0, 150 mM NaCl, 30 mM KCl, 10 mM MgCl2) were added. After incubation at 37℃ for 1h, […]
And then incubation at 37℃ for 1h, the mixture was stopped by the addition of 50 μL of Buffer B (200mM HCl/300 mM Acetic acid), fluorescence intensity was measured using a microplate reader at excitation and emission wavelengths of 360 nm and 460 nm. The inhibition ratios were calculated from the fluorescence intensity readings of tested wells relative to those of control wells, […]
regression analysis of the concentration/inhibition data. All experiments were done in triplicate. […]

Assay [2] has as its system K562 cells. Kind of assay: MTS cell proliferation assay, K562. Type of assay: cell-based, human. As to the method: (§1) Because of the great anti-tumour potential of HDAC inhibitors, we did the antiproliferative evaluation of 18c against K562 cells, A549 cells and HepG2 cells using MTS assay as previously described. […]
(§2) The rate of cell survival under the action of test substances was evaluated by an improved MTS assay as previously described. In brief, A549 (5000 cells / well) , HepG2 (5000 cells / well), HEK293 (5000 cells / well) and K562 (1 ×10^4 cells/well) cell lines were seeded into 96-well plates in 100 µL medium. After overnight incubation, each well was added with different […]
(§3) 48 hours 5ul of MTS reagent solution was added into each well and the cells were incubated for another 4 hours at 37℃ under 5% CO2 environment. The absorbance was measured at 490 nm in […]
(§4) a Microplate to determine the cell viability. The absorbance was directly proportional to the number of viable cells. All experiments were done in triplicate. […]
(§5) calculate and compare their selective index. […]
(§6) Unbound antibodies

Assay [3] deals with A549 cells. Kind of assay: MTS cell proliferation assay, A549. Format: cell-based, human. As to the method:
as §1, §2, §3, §4, §5, §6

Assay [4] relates to HepG2 cells. Nature of the assay: MTS cell proliferation assay, HepG2. Format: cell-based, human. The method, then: as §1, §2, §3, §4, §5, §6
Assay [5] has as its system HEK293. Kind of assay: MTS cell proliferation assay, HEK293 (non-cancerous kidney cell). Type of assay: cell-based. To be noted: Homo sapiens, HEK293; MTS assay, 48 hours; normal cells. The method, then: as §1, §2, §3, §4, §5, §6
Assay [6] concerns the target T1, HDAC8 (Homo sapiens, UniProt Q9BY41).
T1 construct: Hela nuclear extract; endogenous in cells; host or cells: HeLa nuclear extract
T1 sequence (Q9BY41 1-377): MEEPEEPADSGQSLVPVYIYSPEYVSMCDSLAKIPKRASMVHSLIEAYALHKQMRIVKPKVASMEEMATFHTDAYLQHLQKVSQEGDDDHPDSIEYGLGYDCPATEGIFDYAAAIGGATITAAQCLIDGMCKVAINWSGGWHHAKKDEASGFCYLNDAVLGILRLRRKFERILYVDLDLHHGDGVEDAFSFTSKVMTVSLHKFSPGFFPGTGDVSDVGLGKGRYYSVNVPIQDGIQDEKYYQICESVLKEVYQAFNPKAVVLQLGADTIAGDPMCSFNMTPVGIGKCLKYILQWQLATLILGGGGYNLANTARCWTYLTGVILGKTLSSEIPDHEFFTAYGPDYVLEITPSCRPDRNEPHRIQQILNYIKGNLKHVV
Kind of assay: HDAC subtype selectivity assay with subtype substrate, HDAC8. The following applies: read-out: HDAC Inhibition (%) HDAC8. Format: biochemical.

[7] abbreviates: Homo sapiens, MTS assay, 48 hours.

`O=C(N[C@@H](CCCCNC(=O)c1cnc2ccccc2c1)C(=O)Nc1ccccc1)OCc1ccccc1` [Compound 14h]: in assay [1], the “HDAC inhibition (%)” value is recorded as 28.3 ± 4.6%. For `O=C(CCCCC(=O)NCCCC[C@H](NC(=O)OCc1ccccc1)C(=O)Nc1ccccc1)NO` [Compound 18b], in assay [1], the IC50 amounted to 10.4 ± 3.86 µM and the “HDAC inhibition (%)” value is 99.9 ± 0.9%. Regarding `O=C(N[C@@H](CCCCNC(=O)c1ccco1)C(=O)Nc1ccccc1)OCc1ccccc1` [Compound 14e], the “HDAC inhibition (%)” value in assay [1] amounted to 54.0 ± 1.9%. In the case of `Cc1ccc(C(=O)NCCCC[C@H](NC(=O)OCc2ccccc2)C(=O)Nc2ccccc2)cn1` [Compound 14b], the “HDAC inhibition (%)” value in assay [1] was 39.2 ± 0.8%. `O=C(CS)NCCCC[C@H](NC(=O)OCc1ccccc1)C(=O)Nc1ccccc1` [Compound 14g]: the “HDAC inhibition (%)” value in assay [1] amounted to 10.3 ± 4.9%. On the same count and under the same terms, to `Nc1ccccc1NC(=O)CC(=O)NCCCC[C@H](NC(=O)OCc1ccccc1)C(=O)Nc1ccccc1` [Compound 17a] belongs 7.0 ± 0.4%; to `O=C(/C=C/C(=O)NCCCC[C@H](NC(=O)OCc1ccccc1)C(=O)Nc1ccccc1)NO` [Compound 13], 39.3 ± 3.1%; to `O=C(O)CC(=O)NCCCC[C@H](NC(=O)OCc1ccccc1)C(=O)Nc1ccccc1` [Compound 16a], 4.0 ± 1.7%. For the compound `Nc1ccccc1NC(=O)CCCCCCC(=O)NCCCC[C@H](NC(=O)OCc1ccccc1)C(=O)Nc1ccccc1` [Compound 17c], the “HDAC inhibition (%)” value in assay [1] came out at 50.6 ± 6.9%. In the case of `O=C(O)/C=C/C(=O)NCCCC[C@H](NC(=O)OCc1ccccc1)C(=O)Nc1ccccc1` [Compound 10], the “HDAC inhibition (%)” value in assay [1] is reported as 38.7 ± 1.0%. `O=C(N[C@@H](CCCCNC(=O)c1c[nH]c2ccccc12)C(=O)Nc1ccccc1)OCc1ccccc1` [Compound 14j]: the “HDAC inhibition (%)” value in assay [1] was 12.2 ± 6.5%. For `Nc1ccccc1NC(=O)CCCCC(=O)NCCCC[C@H](NC(=O)OCc1ccccc1)C(=O)Nc1ccccc1` [Compound 17b], the “HDAC inhibition (%)” value in assay [1] was determined as 69.3 ± 3.4%.

With `O=C(N[C@@H](CCCCNC(=O)c1cccs1)C(=O)Nc1ccccc1)OCc1ccccc1` [Compound 14f], the “HDAC inhibition (%)” value in assay [1] came to 45.0 ± 0.4%.

Turning to `O=C(N[C@@H](CCCCNC(=O)c1coc2ccccc12)C(=O)Nc1ccccc1)OCc1ccccc1` [Compound 14m], the “HDAC inhibition (%)” value in assay [1] amounted to 14.3 ± 0.5%. In the case of `N[C@@H](Cc1c[nH]c2ccccc12)C(=O)NCCCC[C@H](NC(=O)OCc1ccccc1)C(=O)Nc1ccccc1` [Compound 14q], the “HDAC inhibition (%)” value in assay [1] is on record as 36.2 ± 0.4%. On to `O=C(N[C@@H](CCCCNC(=O)c1csc2ccccc12)C(=O)Nc1ccccc1)OCc1ccccc1` [Compound 14n], for which, in assay [1], the “HDAC inhibition (%)” value is 16.2 ± 2.0%. Turning to `CC(C)(C)OC(=O)N[C@@H](Cc1c[nH]c2ccccc12)C(=O)NCCCC[C@H](NC(=O)OCc1ccccc1)C(=O)Nc1ccccc1` [Compound 14p], the “HDAC inhibition (%)” value in assay [1] is given as 24.7 ± 2.8%. For the compound `O=C(N[C@@H](CCCCNC(=O)c1ccc[nH]1)C(=O)Nc1ccccc1)OCc1ccccc1` [Compound 14d], the “HDAC inhibition (%)” value in assay [1] is on record as 48.4 ± 4.4%. `O=C(N[C@@H](CCCCNCc1c[nH]c2ccccc12)C(=O)Nc1ccccc1)OCc1ccccc1` [Compound 14l]: in assay [1], the “HDAC inhibition (%)” value was 3.1 ± 0.5%. For the compound `O=C(CCC(=O)NCCCC[C@H](NC(=O)OCc1ccccc1)C(=O)Nc1ccccc1)NO` [Compound 11], in assay [1], the 50% inhibitory concentration (IC50) is 25.4 ± 1.35 µM and the “HDAC inhibition (%)” value is 86.0 ± 3.0%. For the compound `O=C(/C=C/c1cccnc1)NCCCC[C@H](NC(=O)OCc1ccccc1)C(=O)Nc1ccccc1` [Compound 14c], in assay [1], the “HDAC inhibition (%)” value is on record as 51.0 ± 1.0%. Consider `O=C(O)CCC(=O)NCCCC[C@H](NC(=O)OCc1ccccc1)C(=O)Nc1ccccc1` [Compound 9], for which, in assay [1], the “HDAC inhibition (%)” value is listed as 37.5 ± 0.6%. On the same count and under the same terms, to `O=C(N[C@@H](CCCCNC(=O)c1ccc2ncccc2c1)C(=O)Nc1ccccc1)OCc1ccccc1` [Compound 14i] belongs 36.8 ± 1.1%; to `O=C(N[C@@H](CCCCNC(=O)c1cccnc1)C(=O)Nc1ccccc1)OCc1ccccc1` [Compound 14a], 39.6 ± 0.4%.

With `COC(=O)CC(=O)NCCCC[C@H](NC(=O)OCc1ccccc1)C(=O)Nc1ccccc1` [Compound 15a], in assay [1], the “HDAC inhibition (%)” value came out at 19.4 ± 10.9%. For the compound `COC(=O)CCCCCCC(=O)NCCCC[C@H](NC(=O)OCc1ccccc1)C(=O)Nc1ccccc1` [Compound 15c], in assay [1], the “HDAC inhibition (%)” value worked out at 7.1 ± 0.3%.

As for `O=C(O)CCCCCCC(=O)NCCCC[C@H](NC(=O)OCc1ccccc1)C(=O)Nc1ccccc1` [Compound 16c], in assay [1], the “HDAC inhibition (%)” value was found to be 1.1 ± 0.4%. The antiproliferative activity result in assay [2] (500 µM, MTS) is reported as “no obvious antiproliferative activities”; in assay [3] (500 µM, MTS), “no obvious antiproliferative activities”; in assay [4] (500 µM, MTS), “no obvious antiproliferative activities”. Also, the half-inhibitory concentration (IC50) in assay [2] (setting [7]), in assay [3] (setting [7]), in assay [4] (setting [7]) and in assay [5] was more than 500 µM each time. For `O=C(O)CCCCC(=O)NCCCC[C@H](NC(=O)OCc1ccccc1)C(=O)Nc1ccccc1` [Compound 16b], the “HDAC inhibition (%)” value in assay [1] amounted to 4.3 ± 0.5%. With `O=C(CCCCCCC(=O)Nc1ccccc1)NO` [SAHA (1), Vorinostat, reference compound], the inhibition at 1 µM in assay [6] worked out at 41.19 ± 0.18%. As for `Nc1ccccc1NC(=O)CCC(=O)NCCCC[C@H](NC(=O)OCc1ccccc1)C(=O)Nc1ccccc1` [Compound 12], the “HDAC inhibition (%)” value in assay [1] came out at 30.7 ± 3.7%. The same measure, in the same setting: as for `O=C(N[C@@H](CCCCNC(=O)C1=CCc2ccccc21)C(=O)Nc1ccccc1)OCc1ccccc1` [Compound 14k], the figure is 22.4 ± 0.2%; as for `COC(=O)CCCCC(=O)NCCCC[C@H](NC(=O)OCc1ccccc1)C(=O)Nc1ccccc1` [Compound 15b], 2.9 ± 0.8%; as for `O=C(CC1SC(=O)NC1=O)NCCCC[C@H](NC(=O)OCc1ccccc1)C(=O)Nc1ccccc1` (stereo partly drawn) [Compound 14o], 48.6 ± 0.5%.
